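Results reflect a 48-hour exposure of cells in 96-well plates to compound at five concentrations. GI50 = concentration required for 50% inhibition of growth. TGI denotes the concentration required for complete inhibition of growth.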
What was measured:
Assay in all cases: NCI-60 cell line screen, 48 h
786-0 renal = tested on: 786-0 renal
A498 renal = tested on: A498 renal
A549 NSCLC = tested on: A549 NSCLC
ACHN renal = tested on: ACHN renal
BT-549 breast = tested on: BT-549 breast
CAKI-1 renal = tested on: CAKI-1 renal
CCRF-CEM leukemia = tested on: CCRF-CEM leukemia
COLO 205 colon = tested on: COLO 205 colon
DU-145 prostate = tested on: DU-145 prostate
EKVX NSCLC = tested on: EKVX NSCLC
HCC-2998 colon = tested on: HCC-2998 colon
HCT-116 colon = tested on: HCT-116 colon
HCT-15 colon = tested on: HCT-15 colon
HL-60(TB) leukemia = tested on: HL-60(TB) leukemia
HOP-62 NSCLC = tested on: HOP-62 NSCLC
HOP-92 NSCLC = tested on: HOP-92 NSCLC
HS 578T breast = tested on: HS 578T breast
HT29 colon = tested on: HT29 colon
IGROV1 ovarian = tested on: IGROV1 ovarian
K-562 leukemia = tested on: K-562 leukemia
KM12 colon = tested on: KM12 colon
LOX IMVI melanoma = tested on: LOX IMVI melanoma
M14 melanoma = tested on: M14 melanoma
MALME-3M melanoma = tested on: MALME-3M melanoma
MCF7 breast = tested on: MCF7 breast
MDA-MB-231 breast = tested on: MDA-MB-231 breast
MDA-MB-435 = tested on: MDA-MB-435
MOLT-4 leukemia = tested on: MOLT-4 leukemia
NCI-H226 lung = tested on: NCI-H226 lung
NCI-H23 lung = tested on: NCI-H23 lung
NCI-H460 lung = tested on: NCI-H460 lung
NCI-H522 lung = tested on: NCI-H522 lung
NCI/ADR-RES ovarian = tested on: NCI/ADR-RES ovarian
OVCAR-4 ovarian = tested on: OVCAR-4 ovarian
OVCAR-5 ovarian = tested on: OVCAR-5 ovarian
OVCAR-8 ovarian = tested on: OVCAR-8 ovarian
PC-3 prostate = tested on: PC-3 prostate
RPMI-8226 leukemia = tested on: RPMI-8226 leukemia
RXF 393 renal = tested on: RXF 393 renal
SF-268 CNS = tested on: SF-268 CNS
SF-295 CNS = tested on: SF-295 CNS
SF-539 CNS = tested on: SF-539 CNS
SK-MEL-2 melanoma = tested on: SK-MEL-2 melanoma
SK-MEL-28 melanoma = tested on: SK-MEL-28 melanoma
SK-MEL-5 melanoma = tested on: SK-MEL-5 melanoma
SK-OV-3 ovarian = tested on: SK-OV-3 ovarian
SN12C renal = tested on: SN12C renal
SNB-19 CNS = tested on: SNB-19 CNS
SNB-75 CNS = tested on: SNB-75 CNS
SR leukemia = tested on: SR leukemia
SW-620 colon = tested on: SW-620 colon
T-47D breast = tested on: T-47D breast
TK-10 renal = tested on: TK-10 renal
U251 CNS = tested on: U251 CNS
UACC-257 melanoma = tested on: UACC-257 melanoma
UACC-62 melanoma = tested on: UACC-62 melanoma
UO-31 renal = tested on: UO-31 renal

Structure (SMILES): CN1CCN(Cc2ccc(NC(=O)c3cncc(C#Cc4cnc5ccc(OCC6(C)COC6)nn45)c3)cc2C(F)(F)F)CC1
- GI50 (786-0 renal): 215 nM
- TGI (786-0 renal): 720 nM
- GI50 (A498 renal): 142 nM
- TGI (A498 renal): 407 nM
- GI50 (A549 NSCLC): 145 nM
- TGI (A549 NSCLC): 433 nM
- GI50 (ACHN renal): 108 nM
- TGI (ACHN renal): 465 nM
- GI50 (BT-549 breast): 320 nM
- TGI (BT-549 breast): 940 nM
- GI50 (CAKI-1 renal): 87.8 nM
- TGI (CAKI-1 renal): 254 nM
- GI50 (CCRF-CEM leukemia): 165 nM
- TGI (CCRF-CEM leukemia): 15900 nM
- GI50 (COLO 205 colon): 111 nM
- TGI (COLO 205 colon): 236 nM
- GI50 (DU-145 prostate): 164 nM
- TGI (DU-145 prostate): 527 nM
- GI50 (EKVX NSCLC): 152 nM
- TGI (EKVX NSCLC): 641 nM
- GI50 (HCC-2998 colon): 199 nM
- TGI (HCC-2998 colon): 656 nM
- GI50 (HCT-116 colon): 125 nM
- TGI (HCT-116 colon): 476 nM
- GI50 (HCT-15 colon): 123 nM
- TGI (HCT-15 colon): 408 nM
- GI50 (HL-60(TB) leukemia): 190 nM
- TGI (HL-60(TB) leukemia): 604 nM
- GI50 (HOP-62 NSCLC): 156 nM
- TGI (HOP-62 NSCLC): 518 nM
- GI50 (HOP-92 NSCLC): 59.5 nM
- TGI (HOP-92 NSCLC): 217 nM
- GI50 (HS 578T breast): 80.4 nM
- TGI (HS 578T breast): 321 nM
- GI50 (HT29 colon): 151 nM
- TGI (HT29 colon): 639 nM
- GI50 (IGROV1 ovarian): 105 nM
- TGI (IGROV1 ovarian): 437 nM
- GI50 (K-562 leukemia): 5 nM
- TGI (K-562 leukemia): 50000 nM
- GI50 (KM12 colon): 5 nM
- TGI (KM12 colon): 352 nM
- GI50 (LOX IMVI melanoma): 107 nM
- TGI (LOX IMVI melanoma): 322 nM
- GI50 (M14 melanoma): 84.9 nM
- TGI (M14 melanoma): 218 nM
- GI50 (MALME-3M melanoma): 89 nM
- TGI (MALME-3M melanoma): 303 nM
- GI50 (MCF7 breast): 86 nM
- TGI (MCF7 breast): 525 nM
- GI50 (MDA-MB-231 breast): 73.1 nM
- TGI (MDA-MB-231 breast): 243 nM
- GI50 (MDA-MB-435): 142 nM
- TGI (MDA-MB-435): 535 nM
- GI50 (MOLT-4 leukemia): 145 nM
- TGI (MOLT-4 leukemia): 16500 nM
- GI50 (NCI-H226 lung): 98.5 nM
- TGI (NCI-H226 lung): 975 nM
- GI50 (NCI-H23 lung): 134 nM
- TGI (NCI-H23 lung): 462 nM
- GI50 (NCI-H460 lung): 194 nM
- TGI (NCI-H460 lung): 669 nM
- GI50 (NCI-H522 lung): 96.7 nM
- TGI (NCI-H522 lung): 204 nM
- GI50 (NCI/ADR-RES ovarian): 163 nM
- TGI (NCI/ADR-RES ovarian): 580 nM
- GI50 (OVCAR-4 ovarian): 135 nM
- TGI (OVCAR-4 ovarian): 757 nM
- GI50 (OVCAR-5 ovarian): 172 nM
- TGI (OVCAR-5 ovarian): 609 nM
- GI50 (OVCAR-8 ovarian): 157 nM
- TGI (OVCAR-8 ovarian): 547 nM
- GI50 (PC-3 prostate): 218 nM
- TGI (PC-3 prostate): 830 nM
- GI50 (RPMI-8226 leukemia): 223 nM
- TGI (RPMI-8226 leukemia): 1440 nM
- GI50 (RXF 393 renal): 113 nM
- TGI (RXF 393 renal): 294 nM
- GI50 (SF-268 CNS): 117 nM
- TGI (SF-268 CNS): 333 nM
- GI50 (SF-295 CNS): 440 nM
- TGI (SF-295 CNS): 1070 nM
- GI50 (SF-539 CNS): 91.1 nM
- TGI (SF-539 CNS): 573 nM
- GI50 (SK-MEL-2 melanoma): 102 nM
- TGI (SK-MEL-2 melanoma): 218 nM
- GI50 (SK-MEL-28 melanoma): 167 nM
- TGI (SK-MEL-28 melanoma): 612 nM
- GI50 (SK-MEL-5 melanoma): 642 nM
- TGI (SK-MEL-5 melanoma): 1280 nM
- GI50 (SK-OV-3 ovarian): 233 nM
- TGI (SK-OV-3 ovarian): 747 nM
- GI50 (SN12C renal): 112 nM
- TGI (SN12C renal): 489 nM
- GI50 (SNB-19 CNS): 200 nM
- TGI (SNB-19 CNS): 668 nM
- GI50 (SNB-75 CNS): 128 nM
- TGI (SNB-75 CNS): 357 nM
- GI50 (SR leukemia): 140 nM
- TGI (SR leukemia): 1650 nM
- GI50 (SW-620 colon): 121 nM
- TGI (SW-620 colon): 317 nM
- GI50 (T-47D breast): 279 nM
- TGI (T-47D breast): 1150 nM
- GI50 (TK-10 renal): 149 nM
- TGI (TK-10 renal): 451 nM
- GI50 (U251 CNS): 193 nM
- TGI (U251 CNS): 715 nM
- GI50 (UACC-257 melanoma): 228 nM
- TGI (UACC-257 melanoma): 829 nM
- GI50 (UACC-62 melanoma): 125 nM
- TGI (UACC-62 melanoma): 577 nM
- GI50 (UO-31 renal): 130 nM
- TGI (UO-31 renal): 436 nM

From PubChem BioAssay (NCI)
